Measured values: patent US8883504B2, “Cell differentiation suppressing agent, method of culturing cells using the same, culture solution, and cultured cell line” (Asahi Kasei Kabushiki Kaisha, priority 2003, dated 2014)

Columns and labels:
[1] = system: STAT3; experiment: STAT3 activation assay 2 (pSTAT3-TA-Luc luciferase reporter); assay type: cell-based, mouse; conditions: D3ES cells, agent 0.4 to 40 μg/mL or ESGRO 10 to 10,000 unit/mL, 6 to 24 hours, FIG. 12
Procedure: For the D3ES cells prepared by the method described in (3) preparation of the ES cell of Example 1, 1×10^5 cells were seeded on a 24-well cell culture dish (Falcon, Cat. No. 3047, USA) coated previously with a 0.1% aqueous gelatin solution to make the ES cell medium in 500 μL per 1 well followed by culturing at 37° C. in 5% CO2 incubator for 12 hours to 24 hours. Next, by using LipofectAMINE 2000 (Invitrogen Corp. made, USA) by a protocol attached to the product, 0.9 μg/well of pSTAT3-TA-Luc or pTA-Luc vector (Clontech Corp. made, USA) was transfected into the ES cells. On the other hand, 0.1 μg of the internal control, pRL-TK vector (Promega Corp. made, USA) was transfected at the same time for each well. Following culturing at 37° C. in 5% CO2 incubator for 4 hours, the medium was sucked and washed twice with PBS and, then, the 500 μL-ES assay medium was added to each well. […] Next, by using PicaGene Dual SeaPansy (Toyo Ink, Japan) by the attached protocol, the luminescence signal generated by the luciferase reporter enzyme of each cell was measured.

[2] = system: mouse embryonic stem cell line D3ES cell; experiment: Alkaline phosphatase staining 1; assay type: cell-based
Procedure: For the D3ES cell obtained by the preparation of the mouse ES cell as described in (3) above, 3×10^2 to 1×10^3 cells per well was seeded in […] of the ES cell assay medium in a well of a 96-well cell culture dish (Falcon Corp. made, Cat. No. 3072, USA) coated previously with a 0.1% aqueous gelatin solution. A 10 μl of the differentiation inhibiting agent (A,B,C,D,E,F: A to D were ASINEX Corp. (Russia) made and E to F were purchased from PHARMEKS Corp. (Russia)) of the present invention or ESGRO, which was dissolved in dimethylsulfoxide (DMSO), or water, or the mixture, was added to each well to make 0.4 to 40 μg/mL, and culturing was carried out at 37° C. in 5% CO2 incubator for 7 days. DMSO added to the medium was adjusted to make a final concentration of 0.1% or lower. On the other hand, to a control well was added only DMSO to make the final concentration of 0.1%.
The ES cells were stained by using an alkaline phosphatase kit (SIGMA Diagnostic Corp. made, Cat. No. 86-R). […]

[3] = system: STAT3; experiment: STAT3 activation assay 1 (pSTAT3-TA-Luc luciferase reporter); assay type: cell-based, mouse; conditions: D3ES cells, agent 0.4 to 40 μg/mL or ESGRO 10 to 10,000 unit/mL, 6 to 24 hours, FIG. 5
Procedure: For the D3ES cells prepared by the method described in (3) preparation of a mouse ES cell of Example 1, 1×10^5 cells in 500 μL ES medium were seeded in a well of a 24-well cell culture dish (Falcon Corp. made, Cat No. 3047, USA) coated previously with a 0.1% aqueous gelatin solution, followed by culturing at 37° C. in 5% CO2 incubator for 12 hours to 24 hours. Next, by using LipofectAMINE 2000 (Invitrogen Corp. made, USA) by a protocol attached to the product, 0.9 μg per 1 well of pSTAT3-TA-Luc or pTA-Luc vector (Clontech Corp. made, USA) was transfected into the ES cells. In addition, 0.1 μg of an internal control, pRL-TK vector (Promega Corp. made, USA) was transfected at the same time for each well. Following culturing at 37° C. in 5% CO2 incubator for 4 hours, the medium was sucked, and the cells were washed twice with PBS and, then, a 500 μL-ES assay medium was added to each well. […] Next, by using PicaGene Dual SeaPansy (Toyo Ink made, Japan) by the attached protocol, a luminescence signal generated by a luciferase reporter enzyme of each cell was measured.

## CC(=O)c1ccc(/N=N/C(C(N)=O)=C2/NC(C)(C)Cc3ccccc32)cc1 [compound B, 2-(4-acetyl-phenylazo)-2-(3,3-dimethyl-3,4-dihydro-2H-isoquinoline-1-ylidene)-acetamide]
[1]
  expression of the luciferase reporter enzyme by pSTAT3-TA-Luc: did not induce the expression of the reporter enzyme
[2]; compound 4 μg/mL, ESGRO 1000 units/mL
  undifferentiated colony formation compared with ES cells cultured in the presence of ESGRO (positive control): form an undifferentiated colony equal to that of the ES cells cultured in the presence of ESGRO
[2]; compound B 4 μg/mL, FIG. 4
  alkaline phosphatase staining in comparison with ES cells cultured in the absence of ESGRO: stained significantly more densely
[3]
  expression of the luciferase reporter enzyme by pSTAT3-TA-Luc: did not induce the expression of the reporter enzyme
